Reference: ChEMBL document CHEMBL1144155, “Synthesis of 3-alkyl naphthalenes as novel estrogen receptor ligands” (Bioorg Med Chem Lett, 2008)
pKi: −log10 of the molar value.

Tests used:
Estrogen receptor beta = Estrogen receptor beta (Homo sapiens, UniProt Q92731)
Estrogen receptor = biological target: T1, Estrogen receptor (Homo sapiens, UniProt P03372)
T1 sequence (P03372 whole entry): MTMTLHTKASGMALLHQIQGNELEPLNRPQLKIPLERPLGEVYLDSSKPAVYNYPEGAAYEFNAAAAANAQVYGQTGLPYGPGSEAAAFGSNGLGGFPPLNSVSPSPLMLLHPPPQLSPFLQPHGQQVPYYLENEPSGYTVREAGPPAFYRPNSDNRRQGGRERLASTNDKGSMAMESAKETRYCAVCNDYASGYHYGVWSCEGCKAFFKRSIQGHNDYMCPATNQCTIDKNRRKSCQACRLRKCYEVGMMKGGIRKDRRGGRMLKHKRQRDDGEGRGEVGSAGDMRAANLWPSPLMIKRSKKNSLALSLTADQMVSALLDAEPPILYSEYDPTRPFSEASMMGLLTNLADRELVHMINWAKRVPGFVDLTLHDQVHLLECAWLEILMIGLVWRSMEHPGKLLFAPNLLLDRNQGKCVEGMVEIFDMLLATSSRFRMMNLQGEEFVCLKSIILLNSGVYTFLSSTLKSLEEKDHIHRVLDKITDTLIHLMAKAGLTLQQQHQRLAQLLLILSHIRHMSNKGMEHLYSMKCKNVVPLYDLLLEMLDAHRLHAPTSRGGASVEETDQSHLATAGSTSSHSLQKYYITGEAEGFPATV

Sequence of Estrogen receptor beta (Q92731 whole entry): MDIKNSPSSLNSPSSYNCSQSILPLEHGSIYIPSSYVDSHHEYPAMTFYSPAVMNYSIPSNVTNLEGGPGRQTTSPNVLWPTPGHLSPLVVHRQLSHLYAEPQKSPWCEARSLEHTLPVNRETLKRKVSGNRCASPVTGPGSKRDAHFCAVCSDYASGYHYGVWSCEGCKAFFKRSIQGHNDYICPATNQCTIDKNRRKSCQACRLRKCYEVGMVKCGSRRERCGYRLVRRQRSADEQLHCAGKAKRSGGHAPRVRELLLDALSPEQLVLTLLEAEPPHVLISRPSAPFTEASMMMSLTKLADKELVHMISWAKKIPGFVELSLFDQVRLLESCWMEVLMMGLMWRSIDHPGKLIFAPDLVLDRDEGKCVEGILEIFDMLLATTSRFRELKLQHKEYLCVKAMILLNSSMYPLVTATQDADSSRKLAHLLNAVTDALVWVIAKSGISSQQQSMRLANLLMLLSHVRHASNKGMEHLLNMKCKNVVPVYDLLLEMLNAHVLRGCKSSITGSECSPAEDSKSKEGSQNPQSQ

pKi (Estrogen receptor beta) | pKi (Estrogen receptor) | SMILES
8.40 | 8.40 | CCCCc1cc2cc(O)ccc2c(Oc2ccc(/C=C/C(=O)O)cc2)c1-c1ccccc1
7.66 | 7.55 | CC(C)Cc1cc2cc(O)ccc2c(Oc2ccc(/C=C/C(=O)O)cc2)c1-c1ccccc1
6.79 | 6.80 | CCCCc1cc2ccccc2c(Oc2ccc(/C=C/C(=O)O)cc2)c1-c1ccc(OC)cc1
7.32 | 7.28 | CCCCc1cc2ccccc2c(Oc2ccc(/C=C/C(=O)O)cc2)c1-c1ccc(O)cc1
6.30 | 6.16 | COCc1cc2ccccc2c(Oc2ccc(/C=C/C(=O)O)cc2)c1-c1ccccc1
6.77 | 6.01 | CCCCc1cc2ccccc2c(Oc2ccc(/C=C/C(=O)O)cc2)c1-c1ccccc1
7.52 | 7.26 | CCCCCCCCc1cc2cc(O)ccc2c(Oc2ccc(/C=C/C(=O)O)cc2)c1-c1ccccc1
6.96 | 6.14 | CCCCc1cc2ccccc2c(Oc2ccc(/C=C/C(=O)O)cc2)c1-c1ccc(F)cc1

SMILES | pKi (Estrogen receptor beta) | pKi (Estrogen receptor)
CCCCCc1cc2cc(O)ccc2c(Oc2ccc(/C=C/C(=O)O)cc2)c1-c1ccccc1 | 8.52 | 8.70
O=C(O)/C=C/c1ccc(Oc2c(-c3ccccc3)c(C3CC3)cc3cc(O)ccc23)cc1 | 7.80 | 7.22
